Laboratory results reported in patent US20220274979A1 (Bayer Pharma Aktiengesellschaft, priority 2018, published 2022).

Target: T1, Epidermal Growth Factor Receptor (EGFR) (Homo sapiens, UniProt P00533)
T1 construct: purchased Sigma-Aldrich E3641
Assay: EGFR kinase assay (TR-FRET)
Format: biochemical
Details: 10 μM ATP; read-out: EGFR kinase inhibition IC50
Source text: EGFR inhibitory activity of compounds of the present invention was quantified employing the TR-FRET based EGFR assay as described in the following paragraphs.
Epidermal Growth Factor Receptor (EGFR) affinity purified from human carcinoma A431 cells (Sigma-Aldrich, # E3641) was used as kinase. As substrate for the kinase reaction the biotinylated peptide biotin-Ahx-[…] (SEQ ID NO: 8, C-terminus in amid form) was used which can be purchased e.g. form the company Biosyntan GmbH (Berlin-Buch, Germany).
For the assay 50 nL of a 100 fold concentrated solution of the test compound in DMSO was pipetted into a black low volume 384 well microtiter plate (Greiner Bio-One, Frickenhausen, Germany), 2 μL of a solution of EGFR in aqueous assay buffer [50 mM Hepes/HCl pH 7.0, 1 mM MgCl2, 5 mM MnCl2, 0.5 mM activated sodium ortho-vanadate, 0.005% (v/v) Tween-20]were added and the mixture was incubated for […] at 22° C. to allow pre-binding of the test compounds to the enzyme before the start of the kinase reaction. Then the kinase reaction was started by the addition of 3 μL of a solution of adenosine-tri-phosphate (ATP, 16.7 μM=>final conc. in the 5 μL assay volume is 10 μM) and substrate (1.67 μM =>final conc. in the 5 μL assay volume is 1μM) in assay buffer and the resulting mixture was incubated for a reaction time of […] at 22° C. The concentration of EGFR was adjusted depending of the activity of the enzyme lot and was chosen appropriate to have the assay in the linear range, typical concentration were about 3 U/ml. The reaction was stopped by the addition of 5 μl of a solution of HTRF detection reagents (0.1 μM streptavidine-XL665 [Cis Biointernational]and 1 nM PT66-Tb-Cryptate, an terbium-cryptate labelled anti-phospho-tyrosine antibody from Cis Biointernational [instead of the PT66-Tb-cryptate PT66-Eu-Chelate from Perkin Elmer can also be used]) in an aqueous EDTA-solution (80 mM EDTA, 0.2% (w/v) bovine serum albumin in 50 mM HEPES pH 7.5).
The resulting mixture was incubated 1 h at 22° C. to allow the binding of the biotinylated phosphorylated peptide to the streptavidine-XL665 and the PT66-Eu-Chelate. Subsequently the amount of phosphorylated substrate was evaluated by measurement of the resonance energy transfer from the PT66-Tb-Cryptate to the streptavidine-XL665. Therefore, the fluorescence emissions at 620 nm and 665 nm after excitation at 337 nm were measured in a HTRF reader, e.g. a Pherastar (BMG Labtechnologies, Offenburg, Germany) or a Viewlux (Perkin-Elmer). The ratio of the emissions at 665 nm and at […] was taken as the measure for the amount of phosphorylated substrate.

T1 sequence (P00533 25-1210): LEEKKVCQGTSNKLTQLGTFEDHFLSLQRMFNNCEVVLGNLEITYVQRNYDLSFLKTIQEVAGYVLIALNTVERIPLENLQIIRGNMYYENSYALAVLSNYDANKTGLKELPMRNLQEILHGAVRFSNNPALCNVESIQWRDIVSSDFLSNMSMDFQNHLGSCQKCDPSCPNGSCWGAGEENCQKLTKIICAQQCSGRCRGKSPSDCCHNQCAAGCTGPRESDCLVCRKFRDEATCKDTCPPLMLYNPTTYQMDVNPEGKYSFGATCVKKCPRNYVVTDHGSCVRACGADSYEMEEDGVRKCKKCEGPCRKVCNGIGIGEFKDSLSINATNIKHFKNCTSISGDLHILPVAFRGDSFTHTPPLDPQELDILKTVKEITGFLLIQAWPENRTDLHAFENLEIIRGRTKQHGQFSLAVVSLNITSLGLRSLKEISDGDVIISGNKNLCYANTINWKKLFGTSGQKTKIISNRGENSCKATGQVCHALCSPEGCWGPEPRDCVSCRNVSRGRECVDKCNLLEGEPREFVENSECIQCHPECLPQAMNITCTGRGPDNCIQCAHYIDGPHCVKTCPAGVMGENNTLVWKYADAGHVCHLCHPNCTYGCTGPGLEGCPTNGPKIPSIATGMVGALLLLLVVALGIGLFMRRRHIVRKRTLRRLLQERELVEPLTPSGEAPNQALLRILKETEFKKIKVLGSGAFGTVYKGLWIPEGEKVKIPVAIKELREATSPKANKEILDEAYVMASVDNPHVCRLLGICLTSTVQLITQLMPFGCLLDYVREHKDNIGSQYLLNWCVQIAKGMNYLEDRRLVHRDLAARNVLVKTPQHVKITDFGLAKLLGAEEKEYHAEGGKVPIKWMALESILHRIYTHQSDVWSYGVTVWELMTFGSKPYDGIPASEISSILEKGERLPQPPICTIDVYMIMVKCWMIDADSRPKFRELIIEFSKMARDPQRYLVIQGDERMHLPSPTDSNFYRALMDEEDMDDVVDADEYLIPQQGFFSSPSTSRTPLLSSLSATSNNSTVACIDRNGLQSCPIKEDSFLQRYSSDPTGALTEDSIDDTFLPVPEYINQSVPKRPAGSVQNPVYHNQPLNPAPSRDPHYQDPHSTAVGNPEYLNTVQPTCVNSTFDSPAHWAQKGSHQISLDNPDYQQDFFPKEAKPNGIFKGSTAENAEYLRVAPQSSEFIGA

| SMILES | IC50 [µM] |
| --- | --- |
| Cc1nc(N[C@H](C)c2cccc(Br)c2)c2cc(Oc3cccc(C4=NCCN4C)c3)ncc2n1 [Example 41, N-[(1R)-1-(3-bromophenyl)ethyl]-2-methyl-6-[3-(1-methyl-4,5-dihydro-1H-imidazol-2-yl)phenoxy]pyrido[3,4-d]pyrimidin-4-amine] | > 20 |
| Cc1nc(N[C@H](C)c2cccc(Br)c2)c2cc(N3CCN(Cc4cccnc4)CC3)ncc2n1 [Example 43, N-[(1R)-1-(3-bromophenyl)ethyl]-2-methyl-6-[4-(pyridin-3-ylmethyl)piperazin-1-yl]pyrido[3,4-d]pyrimidin-4-amine] | > 20 |
| CC(=O)NCCNc1cc2c(N[C@H](C)c3cccc(Br)c3)nc(C)nc2cn1 [Example 44, N-{2-[(4-{[(1R)-1-(3-bromophenyl)ethyl]amino}-2-methylpyrido[3,4-d]pyrimidin-6-yl)amino]ethyl}acetamide] | > 20 |
| Cc1nc(N[C@H](C)c2cccc(Br)c2)c2cc(N3CCNC(=O)C3)ncc2n1 [Example 45] | > 20 |
| Cc1nc(N[C@H](C)c2cccc(Br)c2)c2cc(NC3CCOCC3)ncc2n1 [Example 46] | > 20 |
| Cc1nc(NC(C)c2ccc(-c3ccccc3CN(C)C)s2)c2cc(NCCN3CCOCC3)ncc2n1 (centres unmarked) [Example 48] | > 20 |
| Cc1nc(N[C@H](C)c2cccc(Br)c2)c2cc(NCCn3cccn3)ncc2n1 [Example 49, N4-[(1R)-1-(3-bromophenl)pethyl]-2-methyl-N6-[2-(1H-pyrazol-1-yl)ethyl]pyrido[3,4-d]pyrimidine-4,6-diamine] | > 20 |
| CC(=O)NCCNc1cc2c(NC(C)c3ccc(-c4ccccc4CN(C)C)s3)nc(C)nc2cn1 (centres unmarked) [Example 51, N-{2-[(4-{[1-(5-{2-[(dimethylamino)methyl]phenyl}thiophen-2-yl)ethyl]amino}-2-methylpyrido[3,4-d]pyrimidin-6-yl)amino]ethyl}acetamide] | > 20 |
| Cc1nc(NC(C)c2ccc(-c3ccccc3CN(C)C)s2)c2cc(Oc3cccc(O)c3)ncc2n1 (centres unmarked) [Example 52, 3-[(4-{[1-(5-{2-[(dimethylamino)methyl]phenyl}thiophen-2-yl)ethyl]amino}-2-methylpyrido[3,4-d]pyrimidin-6-yl)oxy]phenol] | > 20 |
| Cc1nc(NC(C)c2ccc(-c3ccccc3CN(C)C)s2)c2cc(NC3CCOCC3)ncc2n1 (centres unmarked) [Example 53, N4-[1-(5-{2-[(dimethylamino)methyl]phenyl}-2-thienyl)ethyl]-2-methyl-N6-(tetrahydro-2H-pyran-4-yl)pyrido[3,4-d]pyrimidine-4,6-diamine] | > 20 |
| Cc1nc(NC(C)c2ccc(-c3ccccc3CN(C)C)s2)c2cc(NCCn3cccn3)ncc2n1 (centres unmarked) [Example 54, N4-[1-(5-{2-[(dimethylamino)methyl]phenyl}-2-thienyl)ethyl]-2-methyl-N6-[2-(1H-pyrazol-1-yl)ethyl]pyrido[3,4-d]pyrimidine-4,6-diamine] | > 20 |
| Cc1nc(NC(C)c2ccc(-c3ccccc3CN(C)C)s2)c2cc(NCCn3ccnc3)ncc2n1 (centres unmarked) [Example 56, N4-[1-(5-{2-[(dimethylamino)methyl]phenyl}-2-thienyl)ethyl]-N6-[2-(1H-imidazol-1-yl)ethyl]-2-methylpyrido[3,4-d]pyrimidine-4,6-diamine] | > 20 |
| COc1cc2c(N[C@H](C)c3cccc(Br)c3)nc(C)nc2cn1 [Example 57, N-[(1R)-1-(3-bromophenyl)ethyl]-6-methoxy-2-methylpyrido[3,4-d]pyrimidin-4-amine] | > 20 |
| Cc1nc(NC(C)c2ccc(-c3ccccc3CN(C)C)s2)c2cc(Oc3cccc(C4=NCCN4C)c3)ncc2n1 (centres unmarked) [Example 58, N-[1-(5-{2-[(dimethylamino)methyl]phenyl}thiophen-2-yl)ethyl]-2-methyl-6-[3-(1-methyl-4,5-dihydro-1H-imidazol-2-yl)phenoxy]pyrido[3,4-d]pyrimidin-4-amine] | > 20 |
| CSc1cc2c(NC(C)c3ccc(-c4ccccc4CN(C)C)s3)nc(C)nc2cn1 (centres unmarked) [Example 59, N-[1-(5-{2-[(dimethylamino)methyl]phenyl}thiophen-2-yl)ethyl]-2-methyl-6-(methylsulfanyl)pyrido[3,4-d]pyrimidin-4-amine] | > 20 |
| CC(=O)NCCOc1cc2c(N[C@H](C)c3cccc(Br)c3)nc(C)nc2cn1 [Example 62, N-{2-[(4-{[(1R)-1-(3-bromophenyl)ethyl]amino}-2-methylpyrido[3,4-d]pyrimidin-6-yl)oxy]ethyl}acetamide] | > 20 |
| CCOc1cc2c(NC(C)c3ccc(-c4ccccc4CN(C)C)s3)nc(C)nc2cn1 (centres unmarked) [Example 63, N-[1-(5-{2-[(dimethylamino)methyl]phenyl}thiophen-2-yl)ethyl]-6-ethoxy-2-methylpyrido[3,4-d]pyrimidin-4-amine] | > 20 |
| COc1cc2c(NC(C)c3ccc(-c4ccccc4CN(C)C)s3)nc(C)nc2cn1 (centres unmarked) [Example 64, N-[1-(5-{2-[(dimethylamino)methyl]phenyl}thiophen-2-yl)ethyl]-6-methoxy-2-methylpyrido[3,4-d]pyrimidin-4-amine] | > 20 |
| Cc1nc(NC(C)c2ccc(-c3ccccc3CN(C)C)s2)c2cc(OC3CCS(=O)(=O)CC3)ncc2n1 (centres unmarked) [Example 67, N-[1-(5-{2-[(dimethylamino)methyl]phenyl}thiophen-2-yl)ethyl]-6-[(1,1-dioxidotetrahydro-2H-thiopyran-4-yl)oxy]-2-methylpyrido[3,4-d]pyrimidin-4-amine] | > 20 |
| Cc1nc(NC(C)c2ccc(-c3ccccc3CO)s2)c2cc(F)ncc2n1 (centres unmarked) [Example 68, [2-(5-{1-[(6-fluoro-2-methylpyrido[3,4-d]pyrimidin-4-yl)amino]ethyl}thiophen-2-yl)phenyl]methanol] | > 20 |
| Cc1nc(N[C@H](C)c2cccc(Br)c2)c2cc(OCCCN(C)C)ncc2n1 [Example 70, N-[(1R)-1-(3-bromophenyl)ethyl]-6-[3-(dimethylamino)propoxy]-2-methylpyrido[3,4-d]pyrimidin-4-amine] | > 20 |
| Cc1nc(NC(C)c2ccc(-c3ccccc3CN(C)C)s2)c2cc(N3CCC3)ncc2n1 (centres unmarked) [Example 71, 6-(azetidin-1-yl)-N-[1-(5-{2-[(dimethylamino)methyl]phenyl}thiophen-2-yl)ethyl]-2-methylpyrido[3,4-d]pyrimidin-4-amine] | > 20 |
| Cc1nc(NC(C)c2ccc(-c3ccccc3CN(C)C)s2)c2cc(OCCCN(C)C)ncc2n1 (centres unmarked) [Example 72, N-[1-(5-{2-[(dimethylamino)methyl]phenyl}thiophen-2-yl)ethyl]-6-[3-(dimethylamino)propoxy]-2-methylpyrido[3,4-d]pyrimidin-4-amine] | > 20 |
| Cc1nc(NC(C)c2ccc(-c3ccccc3CN(C)C)s2)c2cc(OCC3CC3)ncc2n1 (centres unmarked) [Example 73, 6-(cyclopropylmethoxy)-N-[1-(5-{2-[(dimethylamino)methyl]phenyl}thiophen-2-yl)ethyl]-2-methylpyrido[3,4-d]pyrimidin-4-amine] | > 20 |
| Cc1nc(NC(C)c2ccc(-c3ccccc3CN(C)C)s2)c2cc(OCCO)ncc2n1 (centres unmarked) [Example 74, 2-[(4-{[1-(5-{2-[(dimethylamino)methyl]phenyl}thiophen-2-yl)ethyl]amino}-2-methylpyrido[3,4-d]pyrimidin-6-yl)oxy]ethanol] | > 20 |
| Cc1nc(N[C@H](C)c2cccc(Br)c2)c2cc(OCC3CC3)ncc2n1 [Example 75, N-[(1R)-1-(3-bromophenyl)ethyl]-6-(cyclopropylmethoxy)-2-methylpyrido[3,4-d]pyrimidin-4-amine] | > 20 |
| Cc1nc(NC(C)c2ccc(-c3ccccc3CN(C)C)s2)c2cc(OCCCO)ncc2n1 (centres unmarked) [Example 76, 3-[(4-{[1-(5-{2-[(dimethylamino)methyl]phenyl}thiophen-2-yl)ethyl]amino}-2-methylpyrido[3,4-d]pyrimidin-6-yl)oxy]propan-1-ol] | > 20 |
| Cc1nc(NC(C)c2ccc(-c3ccccc3CN(C)C)s2)c2cc(OC3CCS(=N)(=O)CC3)ncc2n1 (centres unmarked) [Example 77, N-[1-(5-{2-[(dimethylamino)methyl]phenyl}-2-thienyl)ethyl]-6-[(1-imino-1-oxidohexahydro-1lambda4-thiopyran-4-yl)oxy]-2-methylpyrido[3,4-d]pyrimidin-4-amine] | > 20 |
| Cc1nc(N[C@H](C)c2cccc(Br)c2)c2cc(OCCN(C)C)ncc2n1 [Example 78, N-[(1R)-1-(3-bromophenyl)ethyl]-6-[2-(dimethylamino)ethoxy]-2-methylpyrido[3,4-d]pyrimidin-4-amine] | > 20 |
